Reference: PubChem BioAssay (NCI)
“And” between values parts separate entries of the source, which are not always exact repeats. Equal entries are not always repeated.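 Cultured in 96-well plates, cells were exposed to test compound for 48 hours across five concentrations. GI50 marks 50% less growth. TGI: concentration producing complete growth inhibition.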

Columns and labels:
Assay in all cases: DTP human tumour cell line panel, 48 h
[1] = system: SNB-19 CNS
[2] = system: SF-295 CNS
[3] = system: SR leukemia
[4] = system: K-562 leukemia
[5] = system: EKVX NSCLC
[6] = system: HOP-92 NSCLC
[7] = system: RPMI-8226 leukemia
[8] = system: IGROV1 ovarian
[9] = system: HOP-62 NSCLC
[10] = system: UACC-62 melanoma

Row | Compound | GI50 [1] | TGI [1] | GI50 [2] | TGI [2] | GI50 [3] | TGI [3] | GI50 [4] | TGI [4] | GI50 [5] | TGI [5] | GI50 [6] | TGI [6] | GI50 [7] | TGI [7] | GI50 [8] | TGI [8] | GI50 [9] | TGI [9] | GI50 [10] | TGI [10]
1 | CSc1nc2c(c(=O)[nH]1)N=C1c3ccccc3C(=O)C1C(c1ccccc1)N2 (stereo not given) | > 100 µM | > 100 µM | 1.91 µM | > 100 µM | 1.51 µM | > 100 µM | 1.27 µM | > 100 µM | 12.8 µM | > 100 µM | 12 µM | > 100 µM | 3.01 µM | > 100 µM | 4.54 µM | > 100 µM | 5.37 µM | > 100 µM | 2.14 µM | > 100 µM
2 | Cc1cc(I)cc(CN(C)CCCCN2CCCCC2)c1O | 19 µM | 45.9 µM | 3.05 µM | 7.62 µM | 4.6 µM | 17.9 µM | 4.03 µM | 17.1 µM | 20.9 µM | 87.3 µM | 6.2 µM | 38.2 µM | 8.68 µM | 25.5 µM | 17.7 µM | 41 µM | 14.4 µM | 28.3 µM | 2.62 µM | 6.98 µM
3 | CC/C=C\CCC/C=C1/C(=O)C=C[C@@H]1C/C=C\CCCC(=O)OC | 4.84 µM | 17.7 µM | 3.1 µM | 8.75 µM | 2.73 µM | 9.22 µM | 2.46 µM | 11.6 µM | 4.56 µM | 15.6 µM | 9.77 µM | 23.6 µM | 2.93 µM | 8.15 µM | 3.3 µM | 11.5 µM | 3.54 µM | 11 µM | 2.57 µM | 6.49 µM
4 | O=C(Nc1ccc(Cl)c(Cl)c1)Nc1ccc(Cl)c(Cl)c1 | 3.03 µM and 3.7 µM | 15.4 µM and 23 µM | 2.3 µM and 1.84 µM | 6.93 µM and 5.39 µM | 2.7 µM and 2.26 µM | 10.9 µM and 6.66 µM | 3.39 µM and 1.97 µM | 19.8 µM and 9.9 µM | 2.36 µM | 11.1 µM | 2.19 µM and 1.23 µM | 5.81 µM and 4.47 µM | 1.79 µM and 0.997 µM | 6.99 µM and 5.33 µM | 4.2 µM and 3.36 µM | 22.2 µM and 10.5 µM | 3.02 µM and 5.73 µM | 11.4 µM and 31.2 µM | 2.88 µM and 2.38 µM | 13.4 µM and 10.4 µM
5 | CCCCCN(CCCCC)CC(O)c1cc(C)c2ccc3cc(C(C)C)ccc3c2c1 (stereo not given) | 1.88 µM | 3.73 µM | 1.87 µM | 3.46 µM | 0.836 µM | 3.17 µM | 2.17 µM | 4.46 µM | 1.76 µM | 3.34 µM | 1.4 µM | 2.85 µM | 2.11 µM | 4.81 µM | 1.79 µM | 3.47 µM | 2.12 µM | 5.7 µM | 1.71 µM | 3.47 µM
6 | CC1=C(C(=O)Nc2ccc(Cl)c(Cl)c2)C(c2cccc(Oc3ccccc3)c2)NC(=S)N1 (stereo not given) | 7.07 µM | 14.1 µM | 8.15 µM | 15.3 µM | 44.9 µM | > 50 µM | 12.4 µM | > 50 µM | 7.55 µM | 15 µM | 13.3 µM | 31.2 µM | 11.2 µM | > 50 µM | 7.72 µM | 19 µM | 14.2 µM | 24.2 µM | 7.81 µM | 14.6 µM
7 | CO[C@H](C(=O)[C@@H](O)[C@@H](C)O)[C@@H]1Cc2cc3cc(O[C@H]4C[C@@H](O[C@H]5C[C@@H](O)[C@H](O)C(C)O5)[C@H](O)C(C)O4)c(C)c(O)c3c(O)c2C(=O)[C@H]1O[C@H]1C[C@@H](O[C@H]2C[C@@H](O[C@H]3C[C@](C)(O)C(=O)C(C)O3)[C@@H](O)C(C)O2)[C@H](O)C(C)O1 (stereo not given in full) | 0.0715 µM | > 33.2 µM | 0.0828 µM | 6.12 µM | 0.0385 µM | > 33.2 µM | 0.1 µM | > 33.2 µM | 0.168 µM | > 12.3 µM | 0.0852 µM | 0.801 µM | 0.1 µM | 1.61 µM | 0.132 µM | > 33.2 µM | 0.0653 µM | – | 0.0187 µM | 0.102 µM
8 | CC(=O)NNc1nc(C)c(C(=O)NNC(=O)C(=O)Nc2c(Cl)cc([N+](=O)[O-])cc2Cl)s1 | – | > 100 µM | – | > 100 µM | – | > 100 µM | – | > 100 µM | – | > 100 µM | – | 56.2 µM | – | > 100 µM | – | > 100 µM | – | > 100 µM | – | 86.2 µM
9 | CC(=O)NNc1nc(C)c(C(=O)NNC(=O)C(=O)Nc2ccc(Cl)cc2)s1 | – | > 100 µM | – | > 100 µM | – | > 100 µM | – | > 100 µM | – | > 100 µM | – | > 100 µM | – | > 100 µM | – | > 100 µM | – | > 100 µM | – | > 100 µM
10 | O=CN/C=C/c1cc(O)ccc1O | – | > 100 µM | – | > 100 µM | – | 48.2 µM | – | 52.9 µM | – | 35.6 µM | – | 25.6 µM | – | 78.2 µM | – | 71.4 µM | – | > 100 µM | – | 27.3 µM
11 | Cc1coc2c1CC1(C)C(CCC(O)C1C)C2 (stereo not given) | – | > 100 µM | – | > 100 µM | – | > 100 µM | – | > 100 µM | – | > 100 µM | – | > 100 µM | – | > 100 µM | – | > 100 µM | – | > 100 µM | – | > 100 µM
12 | CN(C)CC[N+]1=Nc2cccc3cccc(c23)N1 | – | > 100 µM | – | > 100 µM | – | 40.9 µM | – | > 63.4 µM | – | > 100 µM | – | > 100 µM | – | > 66.8 µM | – | > 100 µM | – | > 100 µM | – | > 100 µM
13 | CCOC(=O)[C@]1(OC(C)=O)C[C@H](OC(C)=O)[C@@H](C(F)COP(=O)(OCc2ccccc2)OCc2ccccc2)O1 (stereo not given in full) | 32.9 µM and > 100 µM | > 100 µM | 47.9 µM and > 100 µM | > 100 µM | 30.2 µM and > 100 µM | > 100 µM | – | > 100 µM | 26.3 µM and > 100 µM | 71.3 µM and > 100 µM | – | 34.5 µM | – | 46.5 µM and 82.5 µM | 19.6 µM and > 100 µM | 39.8 µM and > 100 µM | – | > 100 µM | 16.9 µM and > 100 µM | 33.8 µM and > 100 µM
14 | O=C(O)CSc1ccc([N+](=O)[O-])cc1[N+](=O)[O-] | – | > 100 µM | – | > 100 µM | – | > 100 µM | – | > 100 µM | – | > 100 µM | – | > 100 µM | – | > 100 µM | – | > 100 µM | – | > 100 µM | – | > 100 µM
